Reference: US9284541B2, “Methods and compositions for protein labeling using lipoic acid ligases” (Massachusetts Institute of Technology, priority 2007, dated 2016)
“Also recorded” adds a separate entry of the source.

Experiments:
LplA [1] = molecular target: T1, LplA (Escherichia coli, UniProt P32099); test: HPLC analysis of LplA modification of HP1-peptide fusions; kcat of azide 7 ligation to LAP; type: biochemical, E. coli; details: C-terminal fusion to HP1 versus peptide 8
Description: To compare the conversion rates for different peptide substrates, reactions were assembled as follows: 1.5 μM LplA, 150 μM HP1-peptide fusion, 750 μM azide 7, 1 mM ATP, and 2 mM magnesium acetate in 25 mM sodium phosphate pH 7.0. Reactions were incubated at 30° C. for 2 hours, then quenched with 50 mM EDTA (final concentration), and subsequently analyzed by C18 reverse-phase HPLC using a gradient of 30-45% acetonitrile in water with 0.1% trifluoroacetic acid over 20 minutes with a 1 mL/minute flow rate. Retention times for unmodified HP1-peptide fusions ranged from 8-12 minutes, and shifted to 16-21 minutes after ligation to azide 7. Measurements were performed in triplicate. The extent of modification was calculated from the ratio of HP1-peptide-azide 7 peak area to the sum of (HP1-peptide+HP1-peptide-azide 7) peak areas.

[2] = system: mitochondrial respiration; test: Effect of azide 7 on mitochondrial respiration; type: cell-based; details: 24-hour exposure, concentrations less than 750 μM
E. coli LplA = molecular target: T2, E. coli LplA (Escherichia coli, UniProt P32099); test: Measurement of LplA-probe ligation kinetics (HPLC); type: biochemical
T2 sequence (P32099 2-338 limits assumed): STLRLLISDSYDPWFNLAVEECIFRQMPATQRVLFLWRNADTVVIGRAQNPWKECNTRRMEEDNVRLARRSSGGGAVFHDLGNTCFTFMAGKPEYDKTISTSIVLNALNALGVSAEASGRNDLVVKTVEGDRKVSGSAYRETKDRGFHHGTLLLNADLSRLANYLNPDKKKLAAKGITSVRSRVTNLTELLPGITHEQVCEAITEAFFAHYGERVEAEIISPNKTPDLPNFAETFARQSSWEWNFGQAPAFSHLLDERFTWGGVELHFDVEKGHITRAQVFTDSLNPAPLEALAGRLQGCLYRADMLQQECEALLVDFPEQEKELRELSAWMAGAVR
Description: To measure the kcat for LplA ligation of lipoic acid to E2p, 50 nM LplA was combined with 200 μM E2p, 750 μM lipoic acid, […], and 2 mM magnesium acetate in 25 mM sodium phosphate pH 7.0. The reaction was initiated with addition of 1 mM ATP to the pre-warmed (30° C.) mixture. The reaction was incubated at 30° C., and 90 μL aliquots were removed every 5 minutes and quenched with 50 mM EDTA (final concentration). Samples were analyzed by C18 reverse-phase HPLC as described in the “Methods” section. Measurements were performed in triplicate. A calibration curve was obtained that correlated the ratio of integrated HPLC peak areas (E2p:E2p-probe) to the actual protein ratio, in order to compensate for differences in the extinction coefficients of E2p and lipoylated E2p. The amount of product obtained at each time point was plotted against time, to obtain the Vmax of the reaction. From this, the kcat value was obtained using the equation Vmax=kcat [E]total.
90 μL aliquots were removed from the 30° C. reactions at 5 minutes intervals, up to 30 minutes, and quenched with 50 mM EDTA (final concentration). Samples were analyzed by HPLC as above. The amount of product obtained at each time point was plotted against time, to obtain the initial velocity for each concentration of azide 7. […] From the Vmax value, kcat was calculated using the equation Vmax=kcat [E]total.

LplA [3] = molecular target: T1, LplA; test: In vitro LplA activity assay: probe ligation onto E2p (HPLC); type: biochemical, E. coli; details: 350 μM probe, 200 μM E2p, 30 minutes
Description: LplA reactions contained 2 μM LplA, 200 μM E2p, 350 μM probe, 1 mM ATP, 2 mM magnesium acetate, and 25 mM sodium phosphate pH 7.0. Reactions were incubated at 30° C. for 30 minutes, and then quenched with EDTA (final concentration 50 mM). Conversion to product was determined by HPLC on a C18 reverse-phase column with a 40-57% gradient of acetonitrile in water with 0.1% trifluoroacetic acid over 20 minutes (flow rate 1.0 mL/minute). […] Percent conversion to product was calculated from the ratio of the E2p-probe peak area to the sum of (E2p+E2p-probe) peak areas. All measurements were performed in triplicate.

In the case of “peptide 9: peptide 8 fused to the C-terminal end of HP1 (SEQ ID NO: 9) (DEVLVEIETDKAVLEVP)”, the “drop of lipoylation rate” value (LplA [1]) is reported as 5 fold.

With [N-]=[N+]=NCCCCCCCC(=O)O [azide 7, 8-azidooctanoic acid] the “effect on mitochondrial respiration” value [2] was “no effect”, the “Kcat relative to the measured Kcat for lipoic acid ligation” value (E. coli LplA; ligation to E2p) was 2.3 fold and the “incorporation / ligation kinetics by LplA” value (LplA [3]) was “fastest kinetics; also recorded: best kinetics”.

O=C(O)CCCC[C@@H]1CCSS1 (racemic) [lipoic acid] was tested, and the “kcat of LplA-catalyzed ligation to E2p” value (E. coli LplA; 30° C., pH 7.0) was 0.253 ± 0.003 s⁻¹.
